The NIST ThermoML archive (doi:10.1021/acs.jced.5b01000)

Assays:
[1] = xn = mol fraction of the nth substance listed; settings: 99 kPa, Liquid; for viscosity: Capillary tube (Ostwald / Ubbelohde) method; for speed of sound: Frequency=3 MHz, Sing-around technique in a fixed-path interferometer; for mass density: Vibrating tube method
[2] = refractive index (Na D-line) (dimensionless); xn = mol fraction of the nth substance listed; settings: 99 kPa, Liquid, Standard Abbe refractometry

CC(=O)N(C)C [N,N-dimethylethanamide] + CCO
Settings | mass density, [1] [kg/m3] | refractive index, [2] | speed of sound, [1] [m/s] | viscosity, [1] [mPa·s]
283.15 K, x1 = 0.0524 | 811.441 | 1.37246 | 1225.3 | 1.369
283.15 K, x1 = 0.1071 | 824.492 | 1.37916 | 1254.6 | 1.306
283.15 K, x1 = 0.2064 | 845.481 | 1.39001 | 1298 | 1.229
283.15 K, x1 = 0.3022 | 863.302 | 1.39925 | 1334.9 | 1.187
283.15 K, x1 = 0.4057 | 880.337 | 1.40801 | 1369.6 | 1.166
283.15 K, x1 = 0.5032 | 894.71 | 1.41538 | 1399.5 | 1.161
283.15 K, x1 = 0.6016 | 907.87 | 1.42196 | 1427.3 | 1.16
283.15 K, x1 = 0.7065 | 920.678 | 1.42823 | 1454 | 1.164
283.15 K, x1 = 0.8013 | 931.158 | 1.43325 | 1476.5 | 1.17
283.15 K, x1 = 0.9021 | 941.312 | 1.43826 | 1498.3 | 1.172
283.15 K, x1 = 0.9529 | 946.061 | 1.44059 | 1508.5 | 1.169
283.15 K, x1 = 1 | 950.131 | 1.44273 | 1516.8 | 1.168
298.15 K, x1 = 0.0524 | 798.435 | 1.36619 | 1172.1 | 1.038
298.15 K, x1 = 0.1071 | 811.331 | 1.37281 | 1199.9 | 1.003
298.15 K, x1 = 0.2064 | 832.087 | 1.38351 | 1242.5 | 0.9558
298.15 K, x1 = 0.3022 | 849.767 | 1.39264 | 1277.4 | 0.9319
298.15 K, x1 = 0.4057 | 866.689 | 1.40131 | 1312.1 | 0.9212
298.15 K, x1 = 0.5032 | 881.006 | 1.40863 | 1341 | 0.9169
298.15 K, x1 = 0.6016 | 894.141 | 1.41518 | 1367.9 | 0.921
298.15 K, x1 = 0.7065 | 906.822 | 1.42135 | 1394.4 | 0.9259
298.15 K, x1 = 0.8013 | 917.351 | 1.4264 | 1415.7 | 0.9311
298.15 K, x1 = 0.9021 | 927.481 | 1.43136 | 1437.6 | 0.9309
298.15 K, x1 = 0.9529 | 932.213 | 1.43367 | 1446.3 | 0.9307
298.15 K, x1 = 1 | 936.289 | 1.43579 | 1453.7 | 0.9299
313.15 K, x1 = 0.0524 | 785.68 | 1.35974 | 1120.6 | 0.8029
313.15 K, x1 = 0.1071 | 798.43 | 1.36632 | 1147.6 | 0.7849
313.15 K, x1 = 0.2064 | 818.908 | 1.37691 | 1188.7 | 0.7611
313.15 K, x1 = 0.3022 | 836.413 | 1.38598 | 1222.6 | 0.7493
313.15 K, x1 = 0.4057 | 853.186 | 1.39461 | 1256.3 | 0.7462
313.15 K, x1 = 0.5032 | 867.418 | 1.40189 | 1284.2 | 0.7469
313.15 K, x1 = 0.6016 | 880.488 | 1.40843 | 1310.5 | 0.7516
313.15 K, x1 = 0.7065 | 893.143 | 1.41463 | 1336.3 | 0.7581
313.15 K, x1 = 0.8013 | 903.56 | 1.41962 | 1358.5 | 0.7623
313.15 K, x1 = 0.9021 | 913.657 | 1.4246 | 1378.5 | 0.7643
313.15 K, x1 = 0.9529 | 918.346 | 1.42688 | 1386 | 0.7651
313.15 K, x1 = 1 | 922.429 | 1.42901 | 1393.3 | 0.7644

CC(=O)N(C)C [N,N-dimethylethanamide] + CO
Settings | mass density, [1] [kg/m3] | refractive index, [2] | speed of sound, [1] [m/s] | viscosity, [1] [mPa·s]
283.15 K, x1 = 0.0602 | 823.325 | 1.34879 | 1204.4 | 0.7266
283.15 K, x1 = 0.1088 | 838.649 | 1.35969 | 1242 | 0.7638
283.15 K, x1 = 0.2079 | 864.147 | 1.37803 | 1305.6 | 0.831
283.15 K, x1 = 0.304 | 883.509 | 1.39207 | 1353.4 | 0.892
283.15 K, x1 = 0.4055 | 899.792 | 1.40414 | 1394 | 0.9491
283.15 K, x1 = 0.5011 | 912.039 | 1.41331 | 1424.8 | 0.9971
283.15 K, x1 = 0.6014 | 922.607 | 1.42138 | 1450.4 | 1.041
283.15 K, x1 = 0.7036 | 931.645 | 1.42811 | 1473.1 | 1.083
283.15 K, x1 = 0.803 | 938.688 | 1.43369 | 1489.2 | 1.117
283.15 K, x1 = 0.9076 | 945.177 | 1.43878 | 1505 | 1.149
283.15 K, x1 = 0.9502 | 947.535 | 1.4407 | 1510.7 | 1.158
283.15 K, x1 = 1 | 950.131 | 1.44273 | 1516.8 | 1.168
298.15 K, x1 = 0.0602 | 809.208 | 1.3423 | 1154.4 | 0.5868
298.15 K, x1 = 0.1088 | 824.553 | 1.35319 | 1190.7 | 0.6156
298.15 K, x1 = 0.2079 | 849.999 | 1.37142 | 1250.8 | 0.6706
298.15 K, x1 = 0.304 | 869.253 | 1.38536 | 1297.1 | 0.7197
298.15 K, x1 = 0.4055 | 885.574 | 1.39737 | 1336 | 0.764
298.15 K, x1 = 0.5011 | 897.92 | 1.40652 | 1365.2 | 0.8017
298.15 K, x1 = 0.6014 | 908.603 | 1.41458 | 1391.2 | 0.8364
298.15 K, x1 = 0.7036 | 917.769 | 1.42131 | 1413.5 | 0.8692
298.15 K, x1 = 0.803 | 924.814 | 1.42684 | 1429.2 | 0.8941
298.15 K, x1 = 0.9076 | 931.291 | 1.43186 | 1443.4 | 0.9147
298.15 K, x1 = 0.9502 | 933.67 | 1.43378 | 1449.2 | 0.9232
298.15 K, x1 = 1 | 936.289 | 1.43579 | 1453.7 | 0.9299
313.15 K, x1 = 0.0602 | 794.82 | 1.33598 | 1103.1 | 0.479
313.15 K, x1 = 0.1088 | 810.116 | 1.3468 | 1138.1 | 0.5045
313.15 K, x1 = 0.2079 | 835.563 | 1.36494 | 1196.3 | 0.5501
313.15 K, x1 = 0.304 | 854.874 | 1.37881 | 1240.7 | 0.5911
313.15 K, x1 = 0.4055 | 871.236 | 1.39075 | 1278.3 | 0.6287
313.15 K, x1 = 0.5011 | 883.681 | 1.39987 | 1306.9 | 0.6592
313.15 K, x1 = 0.6014 | 894.459 | 1.40791 | 1332.7 | 0.689
313.15 K, x1 = 0.7036 | 903.693 | 1.4146 | 1353 | 0.7156
313.15 K, x1 = 0.803 | 910.885 | 1.42013 | 1370.2 | 0.7362
313.15 K, x1 = 0.9076 | 917.391 | 1.42511 | 1383.7 | 0.7539
313.15 K, x1 = 0.9502 | 919.775 | 1.42701 | 1388.9 | 0.7607
313.15 K, x1 = 1 | 922.429 | 1.42901 | 1393.3 | 0.7644
